Laboratory results reported in ChEMBL document CHEMBL4715697, “Synthesis and biological activity of benzamide DNA minor groove binders” (2016).

How the values were obtained:
Type in all cases: functional
[1] = system: COLO 205; test: Growth inhibition of human COLO 205 cells assessed as cell growth at 0.01 uM incubated for 48 hrs by sulforhodamine B assay relative to control; conditions: read-out: Activity
[2] = system: HCC 2998; test: Growth inhibition of human HCC 2998 cells assessed as cell growth at 0.01 uM incubated for 48 hrs by sulforhodamine B assay relative to control; conditions: read-out: Activity
[3] = system: SK-OV-3; test: Growth inhibition of human SK-OV-3 cells assessed as cell growth at 0.01 uM incubated for 48 hrs by sulforhodamine B assay relative to control; conditions: read-out: Activity
[4] = system: 786-0; test: Growth inhibition of human 786-0 cells assessed as cell growth at 0.01 uM incubated for 48 hrs by sulforhodamine B assay relative to control; conditions: read-out: Activity
[5] = system: A498; test: Growth inhibition of human A498 cells assessed as cell growth at 0.01 uM incubated for 48 hrs by sulforhodamine B assay relative to control; conditions: read-out: Activity
[6] = system: BT-549; test: Growth inhibition of human BT-549 cells assessed as cell growth at 0.01 uM incubated for 48 hrs by sulforhodamine B assay relative to control; conditions: read-out: Activity
[7] = system: HL-60(TB); test: Growth inhibition of human HL-60(TB) cells assessed as cell growth at 0.1 uM incubated for 48 hrs by sulforhodamine B assay relative to control; conditions: read-out: Activity
[8] = system: NCI-H322M; test: Growth inhibition of human NCI-H322M cells assessed as cell growth at 0.1 uM incubated for 48 hrs by sulforhodamine B assay relative to control; conditions: read-out: Activity
[9] = system: KM12; test: Growth inhibition of human KM12 cells assessed as cell growth at 0.1 uM incubated for 48 hrs by sulforhodamine B assay relative to control; conditions: read-out: Activity
[10] = system: U-251; test: Growth inhibition of human U-251 cells assessed as cell growth at 0.1 uM incubated for 48 hrs by sulforhodamine B assay relative to control; conditions: read-out: Activity
[11] = system: SN12C; test: Growth inhibition of human SN12C cells assessed as cell growth at 0.1 uM incubated for 48 hrs by sulforhodamine B assay relative to control; conditions: read-out: Activity
[12] = system: MDA-MB-468; test: Growth inhibition of human MDA-MB-468 cells assessed as cell growth at 0.1 uM incubated for 48 hrs by sulforhodamine B assay relative to control; conditions: read-out: Activity
[13] = system: K562; test: Growth inhibition of human K562 cells assessed as cell growth at 1 uM incubated for 48 hrs by sulforhodamine B assay relative to control; conditions: read-out: Activity
[14] = system: SR; test: Growth inhibition of human SR cells assessed as cell growth at 1 uM incubated for 48 hrs by sulforhodamine B assay relative to control; conditions: read-out: Activity
[15] = system: NCI-H522; test: Growth inhibition of human NCI-H522 cells assessed as cell growth at 1 uM incubated for 48 hrs by sulforhodamine B assay relative to control; conditions: read-out: Activity
[16] = system: SF-295; test: Growth inhibition of human SF-295 cells assessed as cell growth at 1 uM incubated for 48 hrs by sulforhodamine B assay relative to control; conditions: read-out: Activity
[17] = system: SNB-19; test: Growth inhibition of human SNB-19 cells assessed as cell growth at 1 uM incubated for 48 hrs by sulforhodamine B assay relative to control; conditions: read-out: Activity
[18] = system: LOX IMVI; test: Growth inhibition of human LOX IMVI cells assessed as cell growth at 1 uM incubated for 48 hrs by sulforhodamine B assay relative to control; conditions: read-out: Activity
[19] = system: MDA-MB-435; test: Growth inhibition of human MDA-MB-435 cells assessed as cell growth at 1 uM incubated for 48 hrs by sulforhodamine B assay relative to control; conditions: read-out: Activity
[20] = system: SK-MEL-28; test: Growth inhibition of human SK-MEL-28 cells assessed as cell growth at 1 uM incubated for 48 hrs by sulforhodamine B assay relative to control; conditions: read-out: Activity
[21] = system: OVCAR-3; test: Growth inhibition of human OVCAR-3 cells assessed as cell growth at 1 uM incubated for 48 hrs by sulforhodamine B assay relative to control; conditions: read-out: Activity
[22] = system: NCI-H226; test: Growth inhibition of human NCI-H226 cells assessed as cell growth at 100 uM incubated for 48 hrs by sulforhodamine B assay relative to control; conditions: read-out: Activity
[23] = system: NCI-H460; test: Growth inhibition of human NCI-H460 cells assessed as cell growth at 100 uM incubated for 48 hrs by sulforhodamine B assay relative to control; conditions: read-out: Activity
[24] = system: SF-268; test: Growth inhibition of human SF-268 cells assessed as cell growth at 100 uM incubated for 48 hrs by sulforhodamine B assay relative to control; conditions: read-out: Activity
[25] = system: LOX IMVI; test: Growth inhibition of human LOX IMVI cells assessed as cell growth at 100 uM incubated for 48 hrs by sulforhodamine B assay relative to control; conditions: read-out: Activity
[26] = system: OVCAR-4; test: Growth inhibition of human OVCAR-4 cells assessed as cell growth at 100 uM incubated for 48 hrs by sulforhodamine B assay relative to control; conditions: read-out: Activity
[27] = system: A498; test: Growth inhibition of human A498 cells assessed as cell growth at 100 uM incubated for 48 hrs by sulforhodamine B assay relative to control; conditions: read-out: Activity
[28] = system: ACHN; test: Growth inhibition of human ACHN cells assessed as cell growth at 100 uM incubated for 48 hrs by sulforhodamine B assay relative to control; conditions: read-out: Activity
[29] = system: K562; test: Growth inhibition of human K562 cells incubated for 48 hrs by sulforhodamine B assay
[30] = system: NCI-H226; test: Growth inhibition of human NCI-H226 cells incubated for 48 hrs by sulforhodamine B assay
[31] = system: SW-620; test: Growth inhibition of human SW-620 cells incubated for 48 hrs by sulforhodamine B assay
[32] = system: SK-MEL-5; test: Growth inhibition of human SK-MEL-5 cells incubated for 48 hrs by sulforhodamine B assay
[33] = system: 786-0; test: Growth inhibition of human 786-0 cells incubated for 48 hrs by sulforhodamine B assay
[34] = system: SN12C; test: Growth inhibition of human SN12C cells incubated for 48 hrs by sulforhodamine B assay
[35] = system: MDA-MB-231; test: Growth inhibition of human MDA-MB-231 cells incubated for 48 hrs by sulforhodamine B assay
[36] = read-out: LC50 (the source's name)
[37] = read-out: pLC50 (the source's name) (converted)

CC(=O)Nc1cc(CCl)cc(NC(=O)c2ccc(C(=O)Nc3cccc(NC(=O)CCCN(C)C)c3)cc2)c1
118%: growth at 1 µM [14]
70%: growth at 1 µM [16]
97%: growth at 1 µM [19]
> 100 µM: GI50 ([29]; read-out: GI50) | CC50 [29, 36] | TGI ([29]; read-out: TGI) | GI50 ([29]; read-out: pGI50 (converted)) | CC50 [29, 37] | TGI ([29]; read-out: pTGI) | GI50 ([30]; read-out: GI50) | CC50 [30, 36] | TGI ([30]; read-out: TGI) | GI50 ([30]; read-out: pGI50 (converted)) | CC50 [30, 37] | TGI ([30]; read-out: pTGI) | GI50 ([31]; read-out: GI50) | LC50 ([31]; read-out: LC50) | TGI ([31]; read-out: TGI) | GI50 ([31]; read-out: pGI50 (converted)) | LC50 ([31]; read-out: pLC50 (converted)) | TGI ([31]; read-out: pTGI) | GI50 ([32]; read-out: GI50) | LC50 ([32]; read-out: LC50) | TGI ([32]; read-out: TGI) | GI50 ([32]; read-out: pGI50 (converted)) | LC50 ([32]; read-out: pLC50 (converted)) | TGI ([32]; read-out: pTGI) | GI50 ([33]; read-out: GI50) | LC50 ([33]; read-out: LC50) | TGI ([33]; read-out: TGI) | GI50 ([33]; read-out: pGI50 (converted)) | LC50 ([33]; read-out: pLC50 (converted)) | TGI ([33]; read-out: pTGI) | GI50 ([34]; read-out: GI50) | CC50 [34, 36] | TGI ([34]; read-out: TGI) | GI50 ([34]; read-out: pGI50 (converted)) | CC50 [34, 37] | TGI ([34]; read-out: pTGI) | GI50 ([35]; read-out: GI50) | CC50 [35, 36] | TGI ([35]; read-out: TGI) | GI50 ([35]; read-out: pGI50 (converted)) | CC50 [35, 37] | TGI ([35]; read-out: pTGI)
94%: growth at 0.1 µM [10]
102%: growth at 0.01 µM [2]
96%: growth at 1 µM [13] | growth at 1 µM [20]
103%: growth at 0.1 µM [8]
93%: growth at 0.1 µM [7]
99%: growth at 100 µM [23]
87%: growth at 100 µM [22]
104%: growth at 0.01 µM [6] | growth at 0.1 µM [11] | growth at 1 µM [17] | growth at 100 µM [28]
108%: growth at 0.1 µM [9]
88%: growth at 100 µM [24]
109%: growth at 1 µM [21]
89%: growth at 1 µM [15] | growth at 100 µM [26]
106%: growth at 0.01 µM [3] | growth at 0.01 µM [4]
75%: growth at 100 µM [25]
86%: growth at 1 µM [18]
112%: growth at 0.01 µM [1]
84%: growth at 0.1 µM [12]
62%: growth at 100 µM [27]
67%: growth at 0.01 µM [5]

CC(=O)Nc1cc(CO[Si](C)(C)C(C)(C)C)cc(NC(=O)c2ccc(C(=O)Nc3cccc(NC(=O)CCCN(C)C)c3)cc2)c1
98%: growth at 0.01 µM [2] | growth at 0.01 µM [3] | growth at 1 µM [20]
70%: growth at 0.01 µM [5]
51%: growth at 100 µM [27]
> 75.9 µM: GI50 ([29]; read-out: pGI50 (converted)) | CC50 [29, 37] | TGI ([29]; read-out: pTGI) | GI50 ([30]; read-out: pGI50 (converted)) | CC50 [30, 37] | TGI ([30]; read-out: pTGI) | GI50 ([31]; read-out: pGI50 (converted)) | LC50 ([31]; read-out: pLC50 (converted)) | TGI ([31]; read-out: pTGI) | GI50 ([32]; read-out: pGI50 (converted)) | LC50 ([32]; read-out: pLC50 (converted)) | TGI ([32]; read-out: pTGI) | GI50 ([33]; read-out: pGI50 (converted)) | LC50 ([33]; read-out: pLC50 (converted)) | TGI ([33]; read-out: pTGI) | GI50 ([34]; read-out: pGI50 (converted)) | CC50 [34, 37] | TGI ([34]; read-out: pTGI) | GI50 ([35]; read-out: pGI50 (converted)) | CC50 [35, 37] | TGI ([35]; read-out: pTGI)
127%: growth at 1 µM [16]
89%: growth at 100 µM [23]
86%: growth at 1 µM [15]
95%: growth at 0.01 µM [6] | growth at 0.1 µM [8] | growth at 0.1 µM [11] | growth at 1 µM [13]
> 75 µM: GI50 ([29]; read-out: GI50) | CC50 [29, 36] | TGI ([29]; read-out: TGI) | GI50 ([30]; read-out: GI50) | CC50 [30, 36] | TGI ([30]; read-out: TGI) | GI50 ([31]; read-out: GI50) | LC50 ([31]; read-out: LC50) | TGI ([31]; read-out: TGI) | GI50 ([32]; read-out: GI50) | LC50 ([32]; read-out: LC50) | TGI ([32]; read-out: TGI) | GI50 ([33]; read-out: GI50) | LC50 ([33]; read-out: LC50) | TGI ([33]; read-out: TGI) | GI50 ([34]; read-out: GI50) | CC50 [34, 36] | TGI ([34]; read-out: TGI) | GI50 ([35]; read-out: GI50) | CC50 [35, 36] | TGI ([35]; read-out: TGI)
84%: growth at 100 µM [25] | growth at 100 µM [28]
82%: growth at 100 µM [24]
93%: growth at 0.1 µM [12]
94%: growth at 1 µM [14] | growth at 1 µM [18] | growth at 1 µM [19]
97%: growth at 0.01 µM [4] | growth at 0.1 µM [7]
100%: growth at 0.1 µM [9] | growth at 0.1 µM [10]
101%: growth at 0.01 µM [1] | growth at 1 µM [17]
87%: growth at 100 µM [22]
78%: growth at 100 µM [26]
109%: growth at 1 µM [21]
